Reference: patent US20220152031A1, “PYRIDAZINONES AND METHODS OF USE THEREOF” (Goldfinch Bio, Inc., priority 2019, published 2022)

target: T1, TRPC5 (Homo sapiens, UniProt Q9UL62); test: TRPC5 activity assay (FLIPR calcium fluorescence, HEK-TREx hTRPC5 cells); type: cell-based; conditions: HEK-TREx hTRPC5 cells, FLIPR, 30 μM Riluzole stimulation; read-out: TRPC5
T1 construct: expressed in transfected cells
T1 sequence (Q9UL62 1-973): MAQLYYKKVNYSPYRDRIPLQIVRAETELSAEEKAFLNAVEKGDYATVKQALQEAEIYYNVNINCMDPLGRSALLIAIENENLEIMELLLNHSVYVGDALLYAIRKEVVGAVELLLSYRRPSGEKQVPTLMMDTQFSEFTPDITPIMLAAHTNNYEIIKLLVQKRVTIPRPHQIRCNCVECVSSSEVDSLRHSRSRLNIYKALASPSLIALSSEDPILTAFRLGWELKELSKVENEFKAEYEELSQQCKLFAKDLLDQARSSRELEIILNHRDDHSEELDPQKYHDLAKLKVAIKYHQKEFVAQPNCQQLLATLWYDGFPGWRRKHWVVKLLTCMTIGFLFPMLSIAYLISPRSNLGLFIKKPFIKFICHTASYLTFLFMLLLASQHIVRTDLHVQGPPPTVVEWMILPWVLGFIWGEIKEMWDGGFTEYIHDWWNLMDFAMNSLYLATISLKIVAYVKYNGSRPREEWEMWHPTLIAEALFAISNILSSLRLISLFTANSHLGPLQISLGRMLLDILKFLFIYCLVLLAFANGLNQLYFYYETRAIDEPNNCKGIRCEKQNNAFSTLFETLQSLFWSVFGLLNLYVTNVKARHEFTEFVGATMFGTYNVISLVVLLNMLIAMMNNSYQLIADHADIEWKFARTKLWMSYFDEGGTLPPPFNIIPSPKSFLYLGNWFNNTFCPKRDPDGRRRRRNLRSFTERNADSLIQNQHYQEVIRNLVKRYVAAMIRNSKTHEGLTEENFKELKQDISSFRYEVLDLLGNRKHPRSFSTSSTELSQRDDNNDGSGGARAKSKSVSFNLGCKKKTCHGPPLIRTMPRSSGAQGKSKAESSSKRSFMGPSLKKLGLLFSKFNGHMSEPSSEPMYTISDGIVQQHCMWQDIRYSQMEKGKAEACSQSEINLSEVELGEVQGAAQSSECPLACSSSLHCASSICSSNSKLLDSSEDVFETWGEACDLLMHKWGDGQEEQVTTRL
Method: (§1) ICLN-1633 cells (HEK-TREx hTRPC5) expressing TRPC5 were generated as follows. Commercially available HekTrex-293 cells were seeded at 0.7×10^6 cells/well in a 1×6-well plate 24 hrs prior to transfection using 2 mL cell growth media containing no antibiotics (lx DMEM/high glucose (Hyclone #SH30022.02); 10% fetal bovine serum (Sigma) 2 mM sodium pyruvate, 10 mM HEPES). […] On day 2, 2 μg of plasmid DNA plus 6 μl of Xtreme-GENE HP reagent in Optimem (200 μl total volume) was prepared and incubated for 15 min at room temperature. This plasmid solution was then gently overlayed dropwise onto each well and the plate was gently swirled to mix complex with the media for approximately 30 seconds. Transfected cells were incubated at 37° C. in a 10% CO2 incubator for 24 hrs. The transfected cells were harvested and transferred into 2×150 mm dishes containing cell growth media with no antibiotics at 37° C.
(§2) The next day selection was initiated to generate a stable pool by adding cell growth media containing 150 μg/mL Hygromycin and 5 μg/mL Blasticidin and cells were allowed to grow. Media with the selection agent was changed every 1-2 days as needed to remove dead cells. After 7 days, the hygromycin concentration was reduced to 75 μg/mL and cells growth was allowed to continue.
(§3) Single clones were selected as follows. The stable pool was diluted to 10 cells/mL and seeded (100 μl/well) into 24×96 well plates (˜1 cell/well) and allowed to grow for 7 days in cell growth media. Fresh media (100 μl) was added and the cells allowed to grow for another 1-2 weeks and then stored frozen or used immediately.
(§4) 10-point dose response curves were generated using the Echo-550 acoustic dispenser. Compound source plates were made by serially diluting compound stocks to create 10 mM, 1 mM, and 0.1 mM solutions in DMSO into Echo certified LDV plates. The Echo then serially spotted 100% DMSO stock solutions into source dose response plates to generate a 4-fold dilution scheme. 100% DMSO was added to the spotted dose response plates to bring the final volume to 5 μl. 300 nl of the dose response stock plate was then spotted into pre-incubation and stimulation assay plates. 50 μl of pre-incubation buffer and 100 μl of stimulation buffer was then added to the plates resulting in a final assay test concentration range of 30 μM to 0.0001 μM with a final DMSO concentration of 0.3%.
Human ICLN-1633 cells expressing were plated onto 384 well, black PDL-coated microplates and maintained in TRPC5 growth media the day prior to use for experiments. TRPC5 expression was induced by the application of 1 μg/mL tetracycline at the time of plating. […] Cells are incubated at room temperature, protected from light, for 60-90 minutes. After the incubation period, the dye is removed and replaced with 10 μl of EBSS. Cell, pre-incubation and stimulation plates are loaded onto the FLIPR-II and the assay is initiated. The FLIPR measures a 10 second baseline and then adds 10 μl of 2× compounds (or controls). Changes in fluorescence are monitored for an additional 5 minutes. After the 5 minute pre-incubation, 20 μl of 2× Riluzole (with 1× compound or controls) is added to the cell plate. The final Riluzole stimulation concentration in the assay is 30 μM. After the Riluzole addition, changes in fluorescence are monitored for an additional 5 minutes.
Compound modulation of TRPC5 calcium response was determined as follows. After the Englerin A, fluorescence was monitored for a 5-minute period. The maximum relative fluorescence response (minus the control response of 1 μM of an internal control compound known to maximally block TRPC5 calcium response, the “REF INHIB” in the formula below) was captured and exported from the FLIPR.
(§5) Compound effect is calculated as % inhibition using the following formula: […]
(§6) wherein “RFU” is the relative fluorescent units.

| IC50 [nM] | SMILES |
| --- | --- |
| 500 to 1000 | C[C@H]1CCN(Cc2ccccc2)C[C@H]1N(C)c1ncnc2c1CCN(c1cn[nH]c(=O)c1Cl)C2 [Compound 133a] |
| < 50 | Cc1cc(F)ccc1Oc1ncnc2c1CCN(c1cn[nH]c(=O)c1Cl)C2 [Compound 124] |
| < 50 | C[C@@H](O)c1nc2c(c(Oc3ccccc3C(F)(F)F)n1)CCN(c1cn[nH]c(=O)c1Cl)C2 (single isomer, unassigned) [Compound 122] |
| < 50 | O=c1[nH]ncc(N2CCc3c(nc(CO)nc3Oc3ccccc3C(F)(F)F)C2)c1Cl [Compound 128] |

Further lines, the compound ahead of its results:

| SMILES | IC50 [nM] |
| --- | --- |
| O=c1[nH]ncc(N2CCc3c(ncnc3Oc3ccccc3C(F)F)C2)c1Cl [Compound 103, 4-Chloro-5-[4-[2-(difluoromethyl)phenoxy]-5H,6H,7H,8H-pyrido[3,4-d]pyrimidin-7-yl]-2,3-dihydropyridazin-3-one] | < 50 |
| O=c1[nH]ncc(N2CCc3c(nc(NCCO)nc3Oc3ccccc3C(F)(F)F)C2)c1Cl [Compound 115, 4-chloro-5-[2-[(2-hydroxyethyl)amino]-4-[2-(trifluoromethyl)phenoxy]-5H,6H,7H,8H-pyrido[3,4-d]pyrimidin-7-yl]-2,3-dihydropyridazin-3-one] | 50 to 500 |
| CCc1c(F)cccc1Oc1ncnc2c1CCN(c1cn[nH]c(=O)c1Cl)C2 [Compound 109, 4-Chloro-5-[4-(2-ethyl-3-fluorophenoxy)-5H,6H,7H,8H-pyrido[3,4-d]pyrimidin-7-yl]-2,3-dihydropyridazin-3-one] | < 50 |
| Nc1nc2c(c(Oc3ccccc3Cl)n1)CCN(c1cn[nH]c(=O)c1Cl)C2 [Compound 113] | < 50 |
| Nc1nc2c(c(Oc3ccc(F)cc3C(F)(F)F)n1)CCN(c1cn[nH]c(=O)c1Cl)C2 [Compound 116] | < 50 |
| O=c1[nH]ncc(N2CCc3c(ncnc3Oc3ccccc3Cl)C2)c1Cl [Compound 101] | < 50 |
| O=c1[nH]ncc(N2CCc3c(ccnc3Oc3ccc(F)cc3C(F)(F)F)C2)c1Cl [Compound 120, 4-chloro-5-[5-[4-fluoro-2-(trifluoromethyl)phenoxy]-1,2,3,4-tetrahydro-2,6-naphthyridin-2-yl]-2,3-dihydropyridazin-3-one] | < 50 |
| O=c1[nH]ncc(N2CCc3c(ncnc3Oc3cc(F)ccc3C(F)(F)F)C2)c1Cl [Compound 106] | < 50 |

target: T2, TRPC4 (Homo sapiens, UniProt Q9UBN4); test: TRPC4 activity assay (FLIPR calcium fluorescence, HEK-TREx hTRPC4 cells); type: cell-based; conditions: Table 5, HEK-TREx hTRPC4; read-out: TRPC4 FLIPR IC50
T2 construct: expressed in transfected cells
T2 sequence (Q9UBN4 1-982 isoform Q9UBN4-5): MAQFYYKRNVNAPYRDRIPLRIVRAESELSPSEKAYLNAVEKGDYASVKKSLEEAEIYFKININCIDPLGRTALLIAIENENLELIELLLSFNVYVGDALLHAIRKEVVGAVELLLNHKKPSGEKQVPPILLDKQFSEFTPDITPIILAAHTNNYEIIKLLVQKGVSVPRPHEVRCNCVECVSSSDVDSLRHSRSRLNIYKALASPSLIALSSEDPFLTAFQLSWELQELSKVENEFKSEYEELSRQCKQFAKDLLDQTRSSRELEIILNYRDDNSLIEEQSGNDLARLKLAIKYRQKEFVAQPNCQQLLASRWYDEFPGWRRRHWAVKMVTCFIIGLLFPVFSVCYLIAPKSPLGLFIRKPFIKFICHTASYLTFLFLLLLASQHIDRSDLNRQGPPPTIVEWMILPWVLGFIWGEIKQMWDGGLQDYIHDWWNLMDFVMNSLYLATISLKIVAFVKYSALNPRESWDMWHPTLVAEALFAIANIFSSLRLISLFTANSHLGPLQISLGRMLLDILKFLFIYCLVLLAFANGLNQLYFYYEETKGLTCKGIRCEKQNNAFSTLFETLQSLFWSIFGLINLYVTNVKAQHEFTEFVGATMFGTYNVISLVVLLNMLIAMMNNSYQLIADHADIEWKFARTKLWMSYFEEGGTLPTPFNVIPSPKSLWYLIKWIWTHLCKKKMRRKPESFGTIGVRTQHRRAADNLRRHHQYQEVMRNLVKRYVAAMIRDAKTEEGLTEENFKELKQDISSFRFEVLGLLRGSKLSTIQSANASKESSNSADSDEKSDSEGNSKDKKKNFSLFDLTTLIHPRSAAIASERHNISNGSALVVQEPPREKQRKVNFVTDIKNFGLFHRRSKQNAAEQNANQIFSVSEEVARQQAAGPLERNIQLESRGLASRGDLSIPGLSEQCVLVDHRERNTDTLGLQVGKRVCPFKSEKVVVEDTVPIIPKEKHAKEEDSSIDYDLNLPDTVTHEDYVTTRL
Method: as §1, with “ICLN-1694” for “ICLN-1633”, “hTRPC4)” for “hTRPC5)”, “TRPC4” for “TRPC5”
as §2, §3
as §4, with “Echo-certified” for “Echo certified”
ICLN-1694 cells (HEK-TREx hTRPC4) were plated onto 384 well, black pdl-coated microplates and maintained in cell growth media supplemented with 1 μg/mL tetracycline the day prior to use for experiments. TRPC4 expression was induced by the application of 1 μg/mL tetracycline at the time of plating. […] Cells were incubated at room temperature, protected from light, for 60-90 minutes. After the incubation period, the dye was removed and replaced with 10 μl of EBSS. Cell, pre-incubation and stimulation plates were loaded onto the FLIPR-II and the assay was initiated. The FLIPR measured a 10 second baseline and then added 10 μl of 2× compounds (or controls). Changes in fluorescence were monitored for an additional 5 minutes. After a 5 minute pre-incubation, 20 μl of 2× Englerin A (with 1× compound or controls) was added to the cell plate. The final Engerlin A stimulation concentration in the assay was 100 nM. After the Englerin A addition, changes in fluorescence were monitored for an additional 5 minutes.
Compound modulation of TRPC4 calcium response was determined as follows. After the Englerin A, fluorescence was monitored for a 5-minute period. The maximum relative fluorescence response (minus the control response of 1 μM of an internal control compound known to maximally block TRPC4 calcium response, the “REF INHIB” in the formula below) was captured and exported from the FLIPR.
as §5, §6

| IC50 [nM] | SMILES |
| --- | --- |
| 0.01 to 1000 | CC(c1ccc(F)cc1C(F)(F)F)N1C[C@@H](C)N(c2cn[nH]c(=O)c2Cl)CC1=O (single isomer, unassigned) [MD] |
